Laboratory results published in US9480677B2, “Enantiomers of spiro-oxindole compounds and their uses as therapeutic agents” (Xenon Pharmaceuticals Inc., priority 2009, dated 2016).

Experiments:
[1] = Plasma concentration after oral dosing in the CFA model; format: in vivo, rats
Protocol: Each enantiomer was dosed at 10, 30, 100 or 200 mg/Kg. The plasma concentration achieved with each dose was also determined and the reversal of pain response (as the % increase from baseline threshold) is plotted as a function of plasma concentration.

[2] = test system: chronic constriction injury neuropathic pain; assay: Neuropathic pain model; chronic constriction injury (CCI); format: in vivo; details: topical ointment containing 2% (w/v)
[3] = molecular target: T1, hNav1.7 (Homo sapiens, UniProt Q15858); assay: Electrophysiological assay, whole cell voltage clamp; format: cell-based; parameters: expressed in transfected cells; host or cells: HEK293; details: for Ki: affinity for the inactivated state of hNav1.7; for Kd: affinity for the rested/closed state of hNav1.7, holding potential −120 mV, read-out: Kr
T1 sequence (Q15858 whole entry): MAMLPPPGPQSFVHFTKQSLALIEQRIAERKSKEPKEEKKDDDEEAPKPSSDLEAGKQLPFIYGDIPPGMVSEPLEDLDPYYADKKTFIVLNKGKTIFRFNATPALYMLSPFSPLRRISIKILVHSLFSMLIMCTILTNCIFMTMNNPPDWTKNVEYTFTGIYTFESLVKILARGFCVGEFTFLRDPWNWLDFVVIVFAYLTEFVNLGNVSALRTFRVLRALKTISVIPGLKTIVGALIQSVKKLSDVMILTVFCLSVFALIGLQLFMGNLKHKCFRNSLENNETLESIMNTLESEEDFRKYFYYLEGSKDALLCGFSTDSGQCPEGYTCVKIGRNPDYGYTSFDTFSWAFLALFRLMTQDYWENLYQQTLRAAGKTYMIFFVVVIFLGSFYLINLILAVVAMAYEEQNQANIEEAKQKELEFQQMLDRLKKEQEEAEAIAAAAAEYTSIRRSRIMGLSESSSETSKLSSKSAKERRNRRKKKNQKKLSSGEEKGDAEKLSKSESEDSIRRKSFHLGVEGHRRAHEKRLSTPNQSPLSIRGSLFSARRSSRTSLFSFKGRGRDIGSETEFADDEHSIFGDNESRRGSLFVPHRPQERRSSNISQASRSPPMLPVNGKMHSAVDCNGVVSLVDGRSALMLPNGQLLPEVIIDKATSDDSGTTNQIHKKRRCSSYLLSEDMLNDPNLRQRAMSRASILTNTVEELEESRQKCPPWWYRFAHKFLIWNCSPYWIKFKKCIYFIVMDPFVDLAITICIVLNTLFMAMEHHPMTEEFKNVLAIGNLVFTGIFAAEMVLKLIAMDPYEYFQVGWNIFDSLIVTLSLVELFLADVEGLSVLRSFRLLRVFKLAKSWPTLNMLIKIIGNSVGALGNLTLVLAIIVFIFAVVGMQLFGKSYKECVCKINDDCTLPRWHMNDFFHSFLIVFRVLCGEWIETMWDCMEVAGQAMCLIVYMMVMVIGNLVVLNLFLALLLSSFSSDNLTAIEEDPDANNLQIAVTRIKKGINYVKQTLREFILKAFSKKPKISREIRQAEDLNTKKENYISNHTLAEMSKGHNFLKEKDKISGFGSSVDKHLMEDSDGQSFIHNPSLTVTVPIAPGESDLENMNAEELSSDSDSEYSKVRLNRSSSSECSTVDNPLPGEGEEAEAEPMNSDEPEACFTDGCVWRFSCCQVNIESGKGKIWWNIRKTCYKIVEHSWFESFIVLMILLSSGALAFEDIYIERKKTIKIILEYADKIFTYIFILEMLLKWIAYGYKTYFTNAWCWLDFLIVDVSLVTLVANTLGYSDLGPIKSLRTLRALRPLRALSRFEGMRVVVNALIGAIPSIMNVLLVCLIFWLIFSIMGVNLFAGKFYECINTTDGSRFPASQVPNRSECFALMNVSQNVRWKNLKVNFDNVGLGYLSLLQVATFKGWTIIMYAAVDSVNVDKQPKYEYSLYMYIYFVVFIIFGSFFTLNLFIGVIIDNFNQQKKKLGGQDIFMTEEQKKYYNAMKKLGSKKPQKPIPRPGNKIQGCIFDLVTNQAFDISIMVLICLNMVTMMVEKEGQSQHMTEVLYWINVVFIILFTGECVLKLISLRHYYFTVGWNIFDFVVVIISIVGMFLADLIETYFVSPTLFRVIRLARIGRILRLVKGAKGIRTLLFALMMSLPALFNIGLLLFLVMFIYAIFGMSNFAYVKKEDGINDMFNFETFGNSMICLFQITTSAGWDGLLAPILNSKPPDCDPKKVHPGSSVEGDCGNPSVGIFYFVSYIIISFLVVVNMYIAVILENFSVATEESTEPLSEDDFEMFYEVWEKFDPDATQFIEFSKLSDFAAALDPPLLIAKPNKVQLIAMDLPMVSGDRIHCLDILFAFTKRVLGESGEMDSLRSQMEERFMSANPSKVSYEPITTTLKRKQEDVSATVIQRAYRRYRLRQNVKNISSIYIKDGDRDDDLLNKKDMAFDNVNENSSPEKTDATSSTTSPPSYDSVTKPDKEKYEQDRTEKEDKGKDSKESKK
Protocol: HEK293 Cells expressing hNav1.7 were cultured in DMEM growth media (Gibco) with 0.5 mg/mL G418, +/−1% PSG, and 10% heat-inactivated fetal bovine serum at 37° C. and 5% CO2. For electrophysiological recordings, cells were plated on 10 mm dishes.
Whole cell recordings were examined by established methods of whole cell voltage clamp (Bean et al., op. cit.) using an Axopatch 200B amplifier and Clampex software (Axon Instruments, Union City, Calif.). All experiments were performed at ambient temperature. Electrodes were fire-polished to resistances of 2-4 Mohms Voltage errors and capacitance artifacts were minimized by series resistance compensation and capacitance compensation, respectively. Data were acquired at 40 kHz and filtered at 5 kHz. The external (bath) solution consisted of: NaCl (140 mM), KCl (5 mM), CaCl2 (2 mM), MgCl2 (1 mM), HEPES (10 mM) at pH 7.4. The internal (pipette) solution consisted of (in mM): NaCl (5), CaCl2 (0.1), MgCl2 (2), CsCl (10), CsF (120), HEPES (10), EGTA (10), at pH 7.2.
To estimate the steady-state affinity of compounds for the resting and inactivated state of the channel (Kr and Ki, respectively), 12.5 ms test pulses to depolarizing voltages from −60 to +90 m V from a holding potential of −120 m V was used to construct current-voltage relationships (1-V curves). A voltage near the peak of the IV-curve (−30 to 0 m V) was used as the test pulse throughout the remainder of the experiment. Steady-state inactivation (availability) curves were then constructed by measuring the current activated during a 8.75 ms test pulse following 1 second conditioning pulses to potentials ranging from −120 to −10 mV.
The steady-state voltage-dependence of binding of a compound to a voltage-gated sodium channel was determined by measuring the blockage of the ionic current at two holding potentials. Binding to rested-state channels was determined by using a holding potential of −120 mV, so that maximal availability was achieved. Binding to inactivated-state channels was evaluated at a holding potential such that only about 10% of the channels were available to open. The membrane potential was held at this voltage for at least 10 seconds so that drug binding could equilibrate.
The apparent dissociation constant at each voltage was calculated with the equation:
[formula] where Kd is the dissociation constant (either Kr or Ki), and [Drug] is the concentration of the test compound.

[4] = molecular target: T1, hNav1.7; assay: cell-based
[5] = test system: Nav1.9 and Nav1.7 (SH-SY5Y); format: cell-based, Human
[6] = test system: Nav1.4 and 1.5 (L6); format: cell-based, rat
[7] = test system: Nav1.2 and Nav1.7 (PC12); format: cell-based, rat
[8] = test system: Nav1.8 (SK-N-BE2C); format: cell-based, human
[9] = molecular target: Nav1.4 (CHO-K1) (Cricetulus griseus, UniProt A0A9J7H6F9); format: cell-based, Chinese Hamster
Sequence of Nav1.4 (CHO-K1) (A0A9J7H6F9 1-1930): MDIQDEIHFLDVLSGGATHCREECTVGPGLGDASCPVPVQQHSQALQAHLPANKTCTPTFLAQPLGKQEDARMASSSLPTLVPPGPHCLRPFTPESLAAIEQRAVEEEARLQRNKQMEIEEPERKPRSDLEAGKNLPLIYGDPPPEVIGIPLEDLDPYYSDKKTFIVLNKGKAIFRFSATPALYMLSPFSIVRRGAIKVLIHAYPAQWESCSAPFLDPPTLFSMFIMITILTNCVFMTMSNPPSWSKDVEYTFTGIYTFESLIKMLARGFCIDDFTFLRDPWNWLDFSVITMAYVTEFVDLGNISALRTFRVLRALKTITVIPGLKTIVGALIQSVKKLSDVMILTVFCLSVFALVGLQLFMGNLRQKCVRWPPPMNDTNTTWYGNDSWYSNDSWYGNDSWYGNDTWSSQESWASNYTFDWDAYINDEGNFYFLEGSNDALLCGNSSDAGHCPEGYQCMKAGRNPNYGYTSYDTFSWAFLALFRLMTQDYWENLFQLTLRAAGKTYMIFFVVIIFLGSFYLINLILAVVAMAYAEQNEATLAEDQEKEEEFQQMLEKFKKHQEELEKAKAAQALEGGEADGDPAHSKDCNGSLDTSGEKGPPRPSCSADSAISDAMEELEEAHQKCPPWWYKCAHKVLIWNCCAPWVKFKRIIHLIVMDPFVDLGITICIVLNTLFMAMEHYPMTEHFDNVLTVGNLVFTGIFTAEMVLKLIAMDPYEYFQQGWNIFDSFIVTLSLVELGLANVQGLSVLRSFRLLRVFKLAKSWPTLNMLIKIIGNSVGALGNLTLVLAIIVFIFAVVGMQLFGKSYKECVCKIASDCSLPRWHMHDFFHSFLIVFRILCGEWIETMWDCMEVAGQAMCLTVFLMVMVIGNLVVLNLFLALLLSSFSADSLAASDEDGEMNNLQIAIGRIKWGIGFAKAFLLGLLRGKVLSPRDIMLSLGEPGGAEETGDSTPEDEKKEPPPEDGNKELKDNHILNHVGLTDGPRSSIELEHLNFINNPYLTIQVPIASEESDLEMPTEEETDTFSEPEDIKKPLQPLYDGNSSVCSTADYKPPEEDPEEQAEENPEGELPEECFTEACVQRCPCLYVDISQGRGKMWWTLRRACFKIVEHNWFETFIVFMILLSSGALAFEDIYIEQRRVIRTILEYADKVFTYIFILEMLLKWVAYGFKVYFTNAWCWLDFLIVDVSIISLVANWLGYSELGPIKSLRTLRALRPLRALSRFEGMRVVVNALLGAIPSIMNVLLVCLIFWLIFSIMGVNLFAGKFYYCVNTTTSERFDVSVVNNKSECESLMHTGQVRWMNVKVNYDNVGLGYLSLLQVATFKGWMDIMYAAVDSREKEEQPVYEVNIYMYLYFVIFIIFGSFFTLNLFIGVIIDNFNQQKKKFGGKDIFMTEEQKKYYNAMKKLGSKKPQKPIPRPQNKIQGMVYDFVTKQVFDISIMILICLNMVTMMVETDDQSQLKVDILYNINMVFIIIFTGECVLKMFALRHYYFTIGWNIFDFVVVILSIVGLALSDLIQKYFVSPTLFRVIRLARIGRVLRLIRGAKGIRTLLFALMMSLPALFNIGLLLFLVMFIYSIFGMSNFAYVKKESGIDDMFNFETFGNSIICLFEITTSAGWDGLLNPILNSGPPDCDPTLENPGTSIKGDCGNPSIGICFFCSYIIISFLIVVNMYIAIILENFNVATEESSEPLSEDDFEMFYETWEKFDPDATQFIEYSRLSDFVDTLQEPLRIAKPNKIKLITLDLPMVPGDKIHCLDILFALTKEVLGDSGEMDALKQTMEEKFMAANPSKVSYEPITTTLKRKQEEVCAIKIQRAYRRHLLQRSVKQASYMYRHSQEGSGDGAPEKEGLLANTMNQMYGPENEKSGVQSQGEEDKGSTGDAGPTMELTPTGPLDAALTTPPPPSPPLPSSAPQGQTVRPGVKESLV

SMILES	excess of the inactive (R)-enantiomer resulting from use of the racemate ([1]; oral dosing)	plasma concentration at an equivalent dose level ([1]; oral dosing 10, 30, 100 or 200 mg/Kg, compared with the (S)-enantiomer)	reversal of pain responses, percent increase from baseline [2]	Ki [3]	Kd [3]	IC50 [4]	block of [14C] guanidine influx by TTX [5]	block of [14C] guanidine influx by TTX [6]	block of [14C] guanidine influx by TTX [7]	block of [14C] guanidine influx by TTX [8]	block of [14C] guanidine influx by TTX [9]
O=C1N(Cc2ccc(C(F)(F)F)o2)c2ccccc2[C@@]12COc1cc3c(cc12)OCO3 [(I-R), (R)-1′-{[5-(trifluoromethyl)furan-2-yl]methyl}spiro[furo[2,3-f][1,3]benzodioxole-7,3′-indol]-2′(1H)-one]	~10 fold	much higher plasma concentration	no significant increase from baseline	869 nM	> 10000 nM	4200 nM					
NC1=N[C@H](O)[C@H]2[C@H]3O[C@]4(O)O[C@@H]([C@@H](O)[C@@]2(N1)[C@@H]4O)[C@]3(O)CO [TTX, tetrodotoxin]							background was partially blocked	partially blocked by TTX at 100 nM	guanidine influx was completely	TTX partially blocked influx	completely blocked using TTX.
O=C1N(Cc2ccc(C(F)(F)F)o2)c2ccccc2C12COc1cc3c(cc12)OCO3 (racemic) [(I), 1′-{[5-(trifluoromethyl)furan-2-yl]methyl}spiro[furo[2,3-f][1,3]benzodioxole-7,3′-indol]-2′(1′H)-one]				142 nM	> 10000 nM	7 nM					
